Patent US20260325515A1, “TREATMENT OF CANINE CANCERS” (OneHealthCompany, Inc., priority 2023, published 2026)

What was measured:
Assay type in all cases: in vivo, canine (dogs)
[1] = system: Melanoma; assay: Survival of dogs with melanoma treated with Palbociclib (Cox proportional-hazards model)
Description: (§1) A Cox proportional-hazards model was used to fit survival time. The model estimates the risk of death at a given time, h(t|X)=h(t)*exp(X1β1+ . . . +Xpβp), where h represents the risk of death at time t, and X represents p covariates. Additionally, the ratio of the hazard rates in the treatment group versus the control group is represented as the hazard ratio.
(§2) A one-hot encoded feature for each targeted therapy (treatment) received by the dog was created. For example, if a dog receives multiple treatments, the encoding for each treatment would be a “1,” otherwise, a treatment is encoded as “0”. Similarly, gene mutations were one-hot encoded and treated as independent variables during the analyses. Tumor types were grouped into broad categories to preserve sample size and include them as one-hot encoded features.
(§3) Each dog's survival time and status were determined based on their last known update, which was reported by the veterinarian's office. A dog is only considered deceased if there is a reported date of death, and is only considered to have survived up until the last known update. Two survival intervals were computed: survival from time of diagnosis and survival from time of treatment. When reporting hazard ratios regardless of intervention, survival time is defined as survival from time of diagnosis, which is the time from diagnosis to last known update if the dog is still active, and the time from diagnosis to death if the dog is deceased. When reporting hazard ratios for specific treatments, survival time is defined as survival from treatment. The first date of any targeted therapy being ordered is used as the start of the treatment date.
(§4) Demographic features, including weight in kilograms, sex, and reproductive status (neutered or spayed vs intact), were extracted and used as covariates in the Cox model. In addition, to control for each dog's baseline survival rates, the dog's age at diagnosis, as well as the time from diagnosis to treatment are included, which is computed by […].

[2] = system: Osteosarcoma; assay: Survival of dogs with osteosarcoma treated with Olaparib (Cox proportional-hazards model)
Description: as §1, §2, §3, §4

[3] = system: TP53-mutated canine tumors; assay: Real-world clinico-genomic analysis, TP53-mutated canine tumors
Experimental: (§5) Briefly, real-world clinico-genomic data from 3000 dogs were analyzed.

[4] = system: BRCA1-mutated cases; assay: Real-world clinico-genomic analysis, BRCA1-mutated cases; conditions: Olaparib, P=0.004
Experimental: as §5

[5] = system: TP53 mutant osteosarcomas; assay: Real-world clinico-genomic analysis, TP53 mutant osteosarcomas; conditions: Olaparib, P<0.001
Experimental: as §5

[6] = system: soft tissue sarcomas with TP53 mutations; assay: Real-world clinico-genomic analysis, soft tissue sarcomas with TP53 mutations
Experimental: as §5

[7] = system: Anal Sac carcinoma; assay: Survival of dogs with anal sac carcinoma with Olaparib; conditions: 85 without Olaparib
Description: A significant survival benefit in dogs with anal sac carcinoma treated with Olaparib was observed. Dogs receiving Olaparib achieved a median survival of 422 days compared to 273 days in untreated cases, with a hazard ratio of 0.319 and a statistically significant p-value of 0.023 (Table 2).

[8] = system: oral malignant melanoma carrying BRCA1/2 mutations; assay: Survival of dogs with oral malignant melanoma carrying BRCA1/2 mutations treated with Olaparib; conditions: oral malignant melanoma with BRCA1/2 mutations, vs 235 days for other biomarker profiles and alternative drugs, P=0.0120
[9] = system: Squamous cell carcinoma; assay: Survival of dogs with squamous cell carcinoma treated with Toceranib (Cox proportional-hazards model)
Description: as §1, §2, §3, §4

[10] = system: carcinoma; assay: Survival of dogs with carcinoma with Toceranib; conditions: 65 without Toceranib
Description: Dogs receiving Toceranib achieved a median survival of 419 days compared to 250 days in untreated cases, with a hazard ratio of 0.292 and a statistically significant p-value of 0.003 (Table 3).

[11] = system: RB1-mutated canine tumors; assay: Real-world clinico-genomic analysis, RB1-mutated canine tumors; conditions: Rapamycin, P=0.024
Experimental: as §5

CC(=O)c1c(C)c2cnc(Nc3ccc(N4CCNCC4)cn3)nc2n(C2CCCC2)c1=O [Palbociclib]
Median survival (#patients) with treatment ([1]; dogs, 13 patients with treatment, 159 d (114) without treatment): 433 d (13) | Hazard Ratio (Signal Efficacy) ([1]; dogs, treatment vs control, P = 0.043): 0.273 | median survival ([1]; vs. 159 days without treatment): 433 days

O=C(c1cc(Cc2n[nH]c(=O)c3ccccc23)ccc1F)N1CCN(C(=O)C2CC2)CC1 [Olaparib]
Median survival (#patients) with treatment ([2]; dogs, 16 patients with treatment, 154 d (158) without treatment): Inf (16) | Hazard Ratio (Signal Efficacy) ([2]; dogs, treatment vs control, P = 0.021): 0.181 | median survival ([2]; vs. 154 days without treatment): no death observed | OS HR ([3]; TP53-mutated cases, Olaparib, P<0.001): 0.34 | OS HR [4]: 0.39 | OS HR [5]: 0.11 | OS HR ([6]; Olaparib, P=0.011): 0.07 | Median Survival With Olaparib ([7]; 13 dogs with, without Olaparib 372 days (Table 2) / 273 days): 422 days | Hazard Ratio ([7]; 95% CI (0.119-0.855), p-value 0.023, 13 dogs with): 0.319 | median survival [8]: 448 days

Cc1[nH]c(/C=C2\C(=O)Nc3ccc(F)cc32)c(C)c1C(=O)NCCN1CCCC1 [Toceranib]
Median survival (#patients) with treatment ([9]; dogs, 13 patients with treatment, 183 d (32) without treatment): 577 d (13) | Hazard Ratio (Signal Efficacy) ([9]; dogs, treatment vs control, P = 0.005): 0.072 | median survival ([9]; vs. 183 days without treatment): 577 days | Median Survival With Toceranib ([10]; 26 dogs with, without Toceranib 250 days): 419 days | Hazard Ratio ([10]; 95% CI printed (1.31-0.65), p-value 0.003, 26 dogs with): 0.292

CO[C@H]1C[C@@H]2CC[C@@H](C)[C@@](O)(O2)C(=O)C(=O)N2CCCC[C@H]2C(=O)O[C@H]([C@H](C)C[C@@H]2CC[C@@H](O)[C@H](OC)C2)CC(=O)[C@H](C)/C=C(\C)[C@@H](O)[C@@H](OC)C(=O)[C@H](C)C[C@H](C)/C=C/C=C/C=C/1C [Rapamycin]
OS HR ([3]; TP53-mutated canine tumors, Rapamycin, P=0.028): 0.73 | OS HR [11]: 0.32 | OS HR ([6]; Rapamycin, P=0.012): 0.11
